Here are results for one molecule from publication PMC9828337 (Angewandte Chemie (International Ed. in English), 2022).

The assay concerns CurKC-CurALP and CurKCkinase-CurKClyase. Description: MST binding with or without an ATP analog. The note with it: three replicates. On the set-up: species or system Thermomonospora curvata DSM43183.

Take `Nc1ncnc2c1ncn2[C@@H]1O[C@H](COP(=O)(O)OP(=O)(O)OP(=O)(O)O)[C@@H](O)[C@H]1O` [ATP]: the “effect on leader binding and lyase–kinase association” value was “little impact on the leader binding and lyase–kinase association”.
